For one data set, the target named is T1, GABAA α5 receptor (Rattus norvegicus, UniProt P19969).
T1 construct: from tissue; host or cells: rat brain in vivo; hippocampus versus cerebellum
Description: GABAA α5 receptor occupancy with Ro 15-4513 tracer. It is filed as in vivo, Long Evans rats. Conditions: i.v.; for Ro 15-4513 binding in hippocampus / Ro 15-4513 levels/binding in cerebellum: 0.01-10 mg/kg. From the text:
Food and water were available ad libitum.

Data set [1] has as its system aged-impaired (AI) rats. The data set can be described thus: Morris water maze behavioral task. Conditions: 100 μg ICV. Format: in vivo, rat. How it is done:
The effects of 6,6 dimethyl-3-(3-hydroxypropyl)thio-1-(thiazol-2-yl)-6,7-dihydro-2-benzothiophen-4(5H)-one on the in vivo spatial memory retention of aged-impaired (AI) rats were assessed in a Morris water maze behavioral task. A water maze is a pool surrounded with a novel set of patterns relative to the maze.
Cognitively impaired aged rats were implanted unilaterally with a cannula into the lateral ventricle. Stereotaxic coordinates were 1.0 mm posterior to bregma, 1.5 mm lateral to midline, and 3.5 mm ventral to the skull surface. After about a week of recovery, the rats were pre-trained in a water maze for 2 days (6 trials per day) to locate a submerged escape platform hidden underneath the surface of the pool, in which the escape platform location varied from day to day. No intracerebroventricular (ICV) infusion was given during pre-training.
After pre-training, rats received ICV infusion of either 100 μg 6,6 dimethyl-3-(3-hydroxypropyl)thio-1-(thiazol-2-yl)-6,7-dihydro-2-benzothiophen-4(5H)-one (n=6) in 5 μl DMSO or vehicle DMSO (n=5) 40 min prior to water maze training and testing. Training consisted of 8 trials per day for 2 days where the hidden escape platform remained in the same location. Rats were given 60 seconds to locate the platform with a 60 seconds inter-trial interval. The rats were given a probe test (120 seconds) 24 hr. after the end of training where the escape platform was removed. During the training, there were 4 blocks, where each block had 4 training trials.
During a test trial 24 hr after training, the escape platform was removed. The search/swim pattern of the rats was used to measure whether the rats remember where the escape platform was located during pre-trial training in order to test for the long-term memory of the rats. In this trial, “target annulus” is a designated area 1.5 times the size of the escape platform around the area where the platform was located during pre-trial training. “Opposite annulus” is a control area of the same size as the size of the target annulus, which is located opposite to the target annulus in the pool. If the rats had good long-term memory, they would tend to search in the area surrounding the location where the platform was during the pre-trial training (i.e., the “target” annulus; and not the “opposite” annulus). “Time in annulus” is the amount of time in seconds that the rat spent in the target or opposite annulus area. “Number (#) of crossings” in annulus is the number of times the rat swam across the target or opposite annulus area.

A further data set concerns the target T2, GABAA R (α5β2γ2) (Homo sapiens, UniProt P18507+P31644).
T2 construct: expressed in transfected cells
The data set can be described thus: Positive allosteric modulator activity: potentiation of EC20 GABA current in oocytes. It is filed as cell-based. Conditions: read-out: GABA α5 Functional Data: potentiation, @ 100 nM, EC20 GABA; ranges of the column heads. Put shortly: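 Xenopus oocytes injected with 1 ng α5:β2:γ2 cDNA (1:1:10 by weight), tested day 2, voltage-clamped at −60 mV under MBS superfusion.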

A further data set concerns the target α5β3γ2 GABAA R (Homo sapiens, UniProt P18507+P31644). The data set can be described thus: Binding activity on GABAA R: inhibition of [3H]Ro15-1788 binding, α5 containing receptor. Put shortly: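 Membranes from dexamethasone-induced (0.5 μM, 1 day) Ltk cells stably expressing α5β3γ2 receptors, 0.2 mg/ml protein, incubated with [3H]Ro15-1788 for 1 h at 4 °C in 50 mM KH2PO4/1 mM EDTA/0.2 M KCl, pH 7.4. Nonspecific binding with 10 μM diazepam; bound ligand by GF/B filtration and scintillation counting, triplicates.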

The test system of data set [2] is aged-impaired (AI) rats. The data set can be described thus: Radial Arm Maze (RAM) behavioral task, spatial memory retention. It is filed as in vivo, rat. The conditions noted are these: four-hour delay. How it is done: […] RAM behavioral tasks were performed on eight AI rats. All five treatment conditions (vehicle and four dosage levels) were tested on all eight rats.
The RAM apparatus used consisted of eight equidistantly-spaced arms. An elevated maze arm (7 cm width×75 cm length) projected from each facet of an octagonal center platform (30 cm diameter, 51.5 cm height). Clear side walls on the arms were 10 cm high and were angled at […] to form a trough. A food well (4 cm diameter, 2 cm deep) was located at the distal end of each arm. Froot Loops™ (Kellogg Company) were used as rewards. Blocks constructed of Plexiglas™ (30 cm height×12 cm width) could be positioned to prevent entry to any arm. Numerous extra maze cues surrounding the apparatus were also provided.
The AI rats were initially subjected to a pre-training test (Chappell et al. Neuropharmacology 37: 481-487, 1998). The pre-training test consisted of a habituation phase (4 days), a training phase on the standard win-shift task (18 days) and another training phase (14 days) in which a brief delay was imposed between presentation of a subset of arms designated by the experimenter (e.g., 5 arms available and 3 arms blocked) and completion of the eight-arm win-shift task (i.e., with all eight arms available).
In the habituation phase, rats were familiarized to the maze for an 8-minute session on four consecutive days. In each of these sessions, food rewards were scattered on the RAM, initially on the center platform and arms and then progressively confined to the arms. After this habituation phase, a standard training protocol was used, in which a food pellet was located at the end of each arm. Rats received one trial each day for 18 days. Each daily trial terminated when all eight food pellets had been obtained or when either 16 choices were made, or 15 minutes had elapsed. After completion of this training phase, a second training phase was carried out in which the memory demand was increased by imposing a brief delay during the trial. At the beginning of each trial, three arms of the eight-arm maze were blocked. Rats were allowed to obtain food on the five arms to which access was permitted during this initial “information phase” of the trial. Rats were then removed from the maze for 60 seconds, during which time the barriers on the maze were removed, thus allowing access to all eight arms. Rats were then placed back onto the center platform and allowed to obtain the remaining food rewards during this “retention test” phase of the trial. The identity and configuration of the blocked arms varied across trials.
The number of “errors” the AI rats made during the retention test phase was tracked. […]

Setting [3] is: probe test 24 hr after training.

Where only a bound is given, the exact number is not on record here.

Sequence of α5β3γ2 GABAA R (P31644 32-462): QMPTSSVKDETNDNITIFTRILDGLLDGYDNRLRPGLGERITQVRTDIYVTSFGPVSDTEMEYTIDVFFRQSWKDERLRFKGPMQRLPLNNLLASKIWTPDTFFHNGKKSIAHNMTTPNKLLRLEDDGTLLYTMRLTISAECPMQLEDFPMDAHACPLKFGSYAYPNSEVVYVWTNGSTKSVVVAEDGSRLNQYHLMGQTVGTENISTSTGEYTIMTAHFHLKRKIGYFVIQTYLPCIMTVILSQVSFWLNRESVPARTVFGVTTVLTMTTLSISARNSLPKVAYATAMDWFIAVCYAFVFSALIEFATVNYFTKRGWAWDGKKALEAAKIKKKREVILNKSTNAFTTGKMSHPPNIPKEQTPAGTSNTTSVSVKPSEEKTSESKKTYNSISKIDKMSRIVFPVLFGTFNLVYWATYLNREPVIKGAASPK
Sequence of α5β3γ2 GABAA R (P28472 26-473 partner): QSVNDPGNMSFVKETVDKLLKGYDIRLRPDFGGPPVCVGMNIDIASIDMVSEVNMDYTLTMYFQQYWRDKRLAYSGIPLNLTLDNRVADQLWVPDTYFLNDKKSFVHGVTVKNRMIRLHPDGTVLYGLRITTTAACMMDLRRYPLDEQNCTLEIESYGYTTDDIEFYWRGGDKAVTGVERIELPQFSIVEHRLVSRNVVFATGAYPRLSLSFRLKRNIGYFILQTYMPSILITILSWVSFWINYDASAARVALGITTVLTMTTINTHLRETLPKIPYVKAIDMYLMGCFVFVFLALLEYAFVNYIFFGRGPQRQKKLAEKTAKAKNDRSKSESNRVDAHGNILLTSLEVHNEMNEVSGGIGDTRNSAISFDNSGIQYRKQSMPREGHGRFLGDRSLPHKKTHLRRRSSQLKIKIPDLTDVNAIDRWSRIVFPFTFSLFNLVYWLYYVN
Sequence of α5β3γ2 GABAA R (P18507 40-475): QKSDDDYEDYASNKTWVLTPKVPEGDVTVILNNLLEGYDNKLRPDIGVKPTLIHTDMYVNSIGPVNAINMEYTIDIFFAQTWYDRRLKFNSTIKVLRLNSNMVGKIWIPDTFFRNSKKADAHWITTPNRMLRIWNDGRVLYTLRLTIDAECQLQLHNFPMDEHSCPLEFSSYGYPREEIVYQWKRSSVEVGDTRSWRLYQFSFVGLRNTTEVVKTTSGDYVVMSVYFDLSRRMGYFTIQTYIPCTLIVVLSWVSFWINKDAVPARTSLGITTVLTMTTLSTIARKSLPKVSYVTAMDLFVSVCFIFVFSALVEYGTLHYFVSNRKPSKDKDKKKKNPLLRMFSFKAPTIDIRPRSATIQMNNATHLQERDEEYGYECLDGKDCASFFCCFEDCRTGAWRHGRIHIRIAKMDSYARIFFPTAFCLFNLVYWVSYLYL
T2 sequence (P31644 32-462): as the sequence (P31644 32-462) above
T2 sequence (P47870 25-512 partner limits assumed): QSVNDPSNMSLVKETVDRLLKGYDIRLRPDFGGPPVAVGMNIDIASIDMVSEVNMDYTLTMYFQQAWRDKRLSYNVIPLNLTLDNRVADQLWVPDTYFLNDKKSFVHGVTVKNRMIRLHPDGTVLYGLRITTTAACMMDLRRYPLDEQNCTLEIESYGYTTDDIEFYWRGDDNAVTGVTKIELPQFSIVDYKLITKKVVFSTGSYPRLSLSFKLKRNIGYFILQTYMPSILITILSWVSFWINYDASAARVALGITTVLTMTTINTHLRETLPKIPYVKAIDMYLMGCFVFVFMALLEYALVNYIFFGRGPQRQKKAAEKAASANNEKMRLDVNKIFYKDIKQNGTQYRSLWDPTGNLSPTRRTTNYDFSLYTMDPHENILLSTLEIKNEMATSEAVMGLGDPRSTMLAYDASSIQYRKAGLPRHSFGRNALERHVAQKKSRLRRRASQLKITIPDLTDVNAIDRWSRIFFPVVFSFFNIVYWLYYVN
T2 sequence (P18507 40-475): as the sequence (P18507 40-475) above
T1 sequence (P19969 32-464 limits assumed): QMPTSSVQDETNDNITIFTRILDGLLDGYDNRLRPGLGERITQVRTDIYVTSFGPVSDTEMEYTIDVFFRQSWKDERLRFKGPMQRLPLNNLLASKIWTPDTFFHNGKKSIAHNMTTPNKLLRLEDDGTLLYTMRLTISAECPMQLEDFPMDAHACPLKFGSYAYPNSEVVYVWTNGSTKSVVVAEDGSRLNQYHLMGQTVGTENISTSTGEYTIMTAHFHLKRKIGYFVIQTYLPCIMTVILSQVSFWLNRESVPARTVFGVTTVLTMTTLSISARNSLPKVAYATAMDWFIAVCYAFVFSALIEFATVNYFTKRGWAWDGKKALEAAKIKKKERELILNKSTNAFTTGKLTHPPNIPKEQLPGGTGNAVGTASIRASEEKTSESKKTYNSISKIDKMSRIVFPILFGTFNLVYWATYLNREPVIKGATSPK

As for `CCOC(=O)c1ncn2c1Cn1c(C)nnc1-c1cc(OC)ccc1-2`, on GABAA α5 receptor, the “Ro 15-4513 binding in hippocampus” value was “blocked the binding of Ro154513 in the hippocampus” and the “Ro 15-4513 levels/binding in cerebellum” value is recorded as “did not affect binding of Ro15413 in the cerebellum”.
With `CC1(C)CC(=O)c2c(SCCCO)sc(-c3nccs3)c2C1` [6,6 dimethyl-3-(3-hydroxypropyl)thio-1-(thiazol-2-yl)-6,7-dihydro-2-benzothiophen-4(5H)-one], the “time to find the escape platform” value in the data set with aged-impaired (AI) rats [1] (beginning of training (block 1)) was “about 24 seconds”; in the data set on aged-impaired (AI) rats [1] (end of training (block 4)), “about 9.6 seconds”. The “number of crossings of target annulus compared to opposite annulus” value with aged-impaired (AI) rats [1] (setting [3]) is given as “crossed the “target annulus” more often”. Also, the “time in target annulus compared to opposite annulus” value with aged-impaired (AI) rats [1] (setting [3]) is “spent significantly more time in the target annulus”.
Regarding `COc1ccc2c(c1)-c1nn(C)cc1Cc1c(-c3noc(COC4CCCC4)n3)ncn1-2` [Compound 297], at GABAA R (α5β2γ2), the activation at 0.1 µM lay within 5 to 20%. Further, the Ki at α5β3γ2 GABAA R was less than 0.1 µM.
Turning to `COCCn1cc2c(n1)-c1cc(OC)ccc1-n1cnc(-c3nc(COC)no3)c1C2` [Compound 300], the activation at 0.1 µM on GABAA R (α5β2γ2) lay within 20 to 50%. On α5β3γ2 GABAA R, the Ki is less than 0.1 µM.
For `COc1ccc2c(c1)-c1nn(CC3CCCO3)cc1Cc1c(-c3noc(COC(C)C)n3)ncn1-2` (centres unmarked) [Compound 301], the activation at 0.1 µM at GABAA R (α5β2γ2) fell in the range of 20 to 50%. This compound returned a Ki on α5β3γ2 GABAA R of less than 0.1 µM.
Take `COc1ccc2c(c1)-c1nn(CC3CCCO3)cc1Cc1c(-c3nnc(C(F)(F)F)o3)ncn1-2` (centres unmarked) [Compound 302]: the activation at 0.1 µM at GABAA R (α5β2γ2) lay within 5 to 20%. At α5β3γ2 GABAA R, this compound came in with a Ki of less than 0.1 µM.
In the same order, the values of `COc1ccc2c(c1)-c1nn(CC3CCCO3)cc1Cc1c(-c3nnc(COCC(F)(F)F)o3)ncn1-2` (centres unmarked) [Compound 303] are 20 to 50% and less than 0.1 µM.
For the compound `COCc1nc(-c2ncn3c2Cc2cn(CC4CCCO4)nc2-c2cc(Cl)ccc2-3)no1` (centres unmarked) [Compound 304], on GABAA R (α5β2γ2), the activation at 0.1 µM was 5 to 20%. Further, at α5β3γ2 GABAA R, the Ki was less than 0.1 µM.
The matching figures for `Clc1ccc2c(c1)-c1nn(CC3CCCO3)cc1Cc1c(-c3noc(C4COCCO4)n3)ncn1-2` (centres unmarked) [Compound 305]: 5 to 20% and less than 0.1 µM.
In the same order, the values of `COC(C)(C)c1nc(-c2ncn3c2Cc2cn(CC4CCCO4)nc2-c2cc(Cl)ccc2-3)no1` (centres unmarked) [Compound 306] are 5 to 20% and less than 0.1 µM.
In the same order, the values of `Clc1ccc2c(c1)-c1nn(CC3CCCO3)cc1Cc1c(-c3noc(C4CCOC4)n3)ncn1-2` (centres unmarked) [Compound 308] are 20 to 50% and less than 0.1 µM.
Regarding `FC(F)(F)COCc1nc(-c2ncn3c2Cc2cn(CC4CCCO4)nc2-c2cc(Cl)ccc2-3)no1` (centres unmarked) [Compound 309], on GABAA R (α5β2γ2), the activation at 0.1 µM lay within 5 to 20%. This compound also showed a Ki on α5β3γ2 GABAA R of less than 0.1 µM.
The matching figures for `COc1ccc2c(c1)-c1nn(CC3COC3)cc1Cc1c(-c3nc(COC4CCOC4)no3)ncn1-2` (centres unmarked) [Compound 310]: 20 to 50% and less than 0.1 µM.
In the same order, the values of `COc1ccc2c(c1)-c1nn(CC3COC3)cc1Cc1c(-c3noc(C(C)(C)OC)n3)ncn1-2` [Compound 312] are 5 to 20% and less than 0.1 µM.
On to `COCCn1cc2c(n1)-c1cc(OC)ccc1-n1cnc(-c3noc(COCC(F)(F)F)n3)c1C2` [Compound 313], for which the activation at 0.1 µM on GABAA R (α5β2γ2) lay in the range of 5 to 20%. In addition, the Ki on α5β3γ2 GABAA R was less than 0.1 µM.
The matching figures for `COc1ccc2c(c1)-c1nn(CC3COC3)cc1Cc1c(-c3noc(COCC(F)(F)F)n3)ncn1-2` [Compound 314]: 5 to 20% and less than 0.1 µM.
The matching figures for `COCc1noc(-c2ncn3c2Cc2cn(CCOC(F)(F)F)nc2-c2cc(OC)ccc2-3)n1` [Compound 315]: 20 to 50% and less than 0.1 µM.
Turning to `CCOC(=O)c1ncn2c1CN(C)C(=O)c1cc(N=[N+]=[N-])ccc1-2` [Ro 15-4513], on GABAA α5 receptor (tracer 1 μg/kg, after vehicle), the “level of Ro 15-4513 in cerebellum” value worked out at 0.36 ± 0.02 ng/g, the “level of Ro 15-4513 in hippocampus” value is 1.93 ± 0.05 ng/g and the “levels of Ro 15-4513 in hippocampus compared with cerebellum” value is given as greater than 5 fold.
For the compound `CCOC(=O)c1ncn2c1Cn1c(C)nnc1-c1cc(OC)ccc1-2` [ethyl 3-methoxy-7-methyl-9H-benzo[f]imidazo[1,5-a][1,2,4]tri], the “memory performance relative to vehicle control” value in the data set with aged-impaired (AI) rats [2] (3 mg/kg) and with aged-impaired (AI) rats [2] (10 mg/kg) was “significantly improved memory performance” in each case. Besides, the “Ro 15-4513 binding in hippocampus” value on GABAA α5 receptor is reported as “reduced Ro 15-4513 binding in hippocampus”. For the same compound, the “Ro 15-4513 levels/binding in cerebellum” value at GABAA α5 receptor is reported as “without affecting cerebellum levels of Ro 15-4513”. Besides, on GABAA α5 receptor (10 mg/kg), the “GABAA α5 receptor occupancy” value is greater than 90%.

The record behind these values is US20240132513A1, “BENZAZEPINE DERIVATIVES, COMPOSITIONS, AND METHODS FOR TREATING COGNITIVE IMPAIRMENT” (AGENEBIO, INC., priority 2022, published 2024).
